{
  "source": "patent US20060095978A1",
  "about": "“Screening assay” (priority 2002, published 2006)",
  "format_in_all_cases": "in vivo, mouse",
  "key": {"IFN-γ": {"tested_on": "IFN-γ", "assay": "Serum IFN-γ in OVA/OVA323-339 stimulated DO11.10 mice (ELISA)", "details": "for IFN-γ level in pg/ml serum on day 0 after 0 hours: 0 hours (before injection); for increase of INF-γ serum concentration: 90 μg per mouse", "protocol": "(§1) Groups of six, 8-10 weeks old, male or female DO11.10 mice weighing between 20-22 g are obtained as described in Murphy K. M. et al. 1990, Science 250:1720-1722. The animals are maintained in Microvent positive air supply cages (22±1° C., 55±5% relative humidity, 50-70 changes of fresh air/hour and 12 hours day and night cycle) with sawdust bedding. Standard laboratory mouse chow (SNIFF, Soest, Germany) and drinking water is given ad libidum. The animals are used for the study after an adaptation period of 10-14 days and grouped (6 per group) in type II Macrolon cages one day before the experiment.\n(§2) Groups of six DO11.10 mice are i.p. injected with 10 μg of ovalbumin (OVA, Sigma, St. Louis, USA) absorbed to 2 mg of Al(OH)3 (Alu Gel S; 2% Al(OH)3, Serva, Heidelberg, FRG) and diluted with saline to a volume of 0.2 ml or various amounts (1, 3, 10, 30, or 90 μg per mouse) of alum-precipitated OVA323-339 peptide (98% purity, piChem R&D, Graz Austria) in 0.2 ml on days 0 and 14. Before and at different time points on days 0 and 14 after the OVA or OVA323-339 peptide administration about 200 μl of blood are collected by puncture of the retro-orbital plexus under ether anesthesia.\nThe sera are collected and stored frozen at −20° C. until analyzed. […]\nMurine IL-2, IFN-γ and IL-4 are analyzed by immunoassays (Quantikine R&D Systems, Minneapolis, Minn., USA). Results are expressed as pg per ml serum expressed as mean±SEM pg of the cytokine indicated per ml serum. Test and control groups are evaluated by Dunn test by Kruskall-Wallis One Way Anova using the SigmaStat® program. […]\nMice of the control group are injected with alum. Blood is collected before and at 2, 4, and 6 hours after the first peptide injection. INF-γ is determined in the sera by an ELISA. Results are expressed as mean pg per ml serum±SEM. […]"}, "IL-1α": {"tested_on": "IL-1α", "assay": "Serum IL-1α in DO11.10 mice primed with OVA-peptide and challenged with LPS", "details": "challenged with the highest LPS dose", "protocol": "(§3) Animals are provided as described in Example 2a).\n(§4) b) Administration of OVA323-339 (=OVA-peptide) and LPS Groups of six DO11.10 mice receive i.p. 30 μg of OVA323-339 peptide (98% purity, pi Chem R&D, Graz Austria) in 0.2 ml 0.9% saline per mouse. Control mice are injected i.p. with the same amount of saline.\n(§5) 18 hours later the mice are challenged i.p. with 100, 300 or 500 μg LPS (E. coli 0111: B4 Sigma Vienna, Austria). At 2, 4 and 6 hours after the LPS administration about 200 μl of blood are collected by puncture of the retro-orbital plexus under ether anesthesia. The sera are collected and stored frozen at −20° until analyzed.\n(§6) Murine IL-1α, IL-1β and TNF-α serum levels are determined by ELISAs (IL-1α and TNF-α, Bender MedSystems, Vienna Austria; IL-1β, Quantikine R&D Systems, Minneapolis, Minn.). Results are expressed as pg per ml serum. Differences in the serum cytokines concentrations between the different experimental groups are examined for statistical significance by the Mann-Whitney U test, two tailed. Results are expressed as the mean±SEM. p<0.05 is regarded as significant.\nThe injection of OVA-peptide at doses between 3 and 90 μg per mouse increases serum concentrations of IFN-γ as well as other cytokines, such as IL-4 and IL-2, in a dose/amount-dependent way. […] The serum IL-1α levels are expressed as mean pg per ml serum±SEM."}, "IL-2": {"tested_on": "IL-2", "assay": "Serum IL-2 in OVA323-339 stimulated DO11.10 mice (ELISA)", "protocol": "as §1, §2\nThe sera are collected and stored frozen at −20° C. until analyzed.\nThe Neoral solution is diluted further with tap water. Doses of 20, 40, and 80 mg/kg b.w. are administered in a volume of 0.2 ml. Animals in the control group receive the solvent alone.\nMurine IL-2, IFN-γ and IL-4 are analyzed by immunoassays (Quantikine R&D Systems, Minneapolis, Minn., USA). Results are expressed as pg per ml serum expressed as mean±SEM pg of the cytokine indicated per ml serum. Test and control groups are evaluated by Dunn test by Kruskall-Wallis One Way Anova using the SigmaStat® program.\nAnimals of the control group are injected with alum. Blood is collected before and at 2 hours after the peptide injection. IL-2 is determined in the sera by an ELISA. Results are expressed as mean pg per ml serum±SEM.\nBlood is collected 2 hours later and IFN-γ, IL-4 and IL-2 levels are determined in the sera by ELISAs. Results are expressed as mean pg per ml serum±SEM."}, "TNF-α": {"tested_on": "TNF-α", "assay": "Serum TNF-α in DO11.10 mice primed with OVA-peptide and challenged with LPS", "protocol": "as §3, §4, §5, §6\nThe effects of various doses of LPS (100, 300, or 500 μg/mouse) on the production of TNF-α in the serum of non-sensitized DO11.10 mice or mice sensitized by i.p. injection of OVA-peptide (30 μg/mouse, 18 hours prior to LPS challenge) are given in TABLE 8. The TNF-α serum levels are expressed as mean pg per ml serum±SEM."}},
  "data": [
    {"substance": "OVA323-339: peptide derived from chicken ovalbumin containing amino acids from position 323 to 339 (KISQAVHAAHAEINEAG; UniProt P01012 323-339, looked up, fragment)", "values": [
      {"measurement": "IFN-γ level in pg/ml serum on day 0 after 0 hours", "setting": "IFN-γ; 1 μg OVA323-339 i.p.", "result": "11.181 ± 1.288", "unit": "pg/mL"},
      {"measurement": "IFN-γ level in pg/ml serum on day 0 after 2 hours", "setting": "IFN-γ; 1 μg OVA323-339 i.p.", "result": "18.047 ± 3.944", "unit": "pg/mL"},
      {"measurement": "IFN-γ level in pg/ml serum on day 0 after 4 hours", "setting": "IFN-γ; 1 μg OVA323-339 i.p.", "result": "41.034 ± 12.394", "unit": "pg/mL"},
      {"measurement": "IFN-γ level in pg/ml serum on day 0 after 6 hours", "setting": "IFN-γ; 1 μg OVA323-339 i.p.", "result": "15.925 ± 4.594", "unit": "pg/mL"},
      {"measurement": "IFN-γ level in pg/ml serum on day 0 after 0 hours", "setting": "IFN-γ; 3 μg OVA323-339 i.p.", "result": "8.230 ± 1.430", "unit": "pg/mL"},
      {"measurement": "IFN-γ level in pg/ml serum on day 0 after 2 hours", "setting": "IFN-γ; 3 μg OVA323-339 i.p.", "result": "62.724 ± 7.939", "unit": "pg/mL"},
      {"measurement": "IFN-γ level in pg/ml serum on day 0 after 4 hours", "setting": "IFN-γ; 3 μg OVA323-339 i.p.", "result": "63.023 ± 12.462", "unit": "pg/mL"},
      {"measurement": "IFN-γ level in pg/ml serum on day 0 after 6 hours", "setting": "IFN-γ; 3 μg OVA323-339 i.p.", "result": "25.962 ± 8.858", "unit": "pg/mL"},
      {"measurement": "increase of serum INF-γ levels compared to alum control", "setting": "IFN-γ; 3 μg, at 2 and 4 hours", "result": "about 11 fold"},
      {"measurement": "IFN-γ level in pg/ml serum on day 0 after 0 hours", "setting": "IFN-γ; 10 μg OVA323-339 i.p.", "result": "0.374 ± 0.324", "unit": "pg/mL"},
      {"measurement": "IFN-γ level in pg/ml serum on day 0 after 2 hours", "setting": "IFN-γ; 10 μg OVA323-339 i.p.", "result": "65.927 ± 23.147", "unit": "pg/mL"},
      {"measurement": "IFN-γ level in pg/ml serum on day 0 after 4 hours", "setting": "IFN-γ; 10 μg OVA323-339 i.p.", "result": "202.260 ± 48.410", "unit": "pg/mL"},
      {"measurement": "IFN-γ level in pg/ml serum on day 0 after 6 hours", "setting": "IFN-γ; 10 μg OVA323-339 i.p.", "result": "24.047 ± 9.455", "unit": "pg/mL"},
      {"measurement": "rise in INF-γ serum levels compared to alum alone", "setting": "IFN-γ; 10 μg OVA323-339 peptide 2 weeks after 10 μg OVA", "result": "~25", "unit": "fold"},
      {"measurement": "IFN-γ level in pg/ml serum on day 0 after 0 hours", "setting": "IFN-γ; 30 μg OVA323-339 i.p.", "result": "3.988 ± 0.700", "unit": "pg/mL"},
      {"measurement": "IFN-γ level in pg/ml serum on day 0 after 2 hours", "setting": "IFN-γ; 30 μg OVA323-339 i.p.", "result": "207.727 ± 62.093", "unit": "pg/mL"},
      {"measurement": "IFN-γ level in pg/ml serum on day 0 after 4 hours", "setting": "IFN-γ; 30 μg OVA323-339 i.p.", "result": "176.807 ± 79.268", "unit": "pg/mL"},
      {"measurement": "IFN-γ level in pg/ml serum on day 0 after 6 hours", "setting": "IFN-γ; 30 μg OVA323-339 i.p.", "result": "187.325 ± 62.370", "unit": "pg/mL"},
      {"measurement": "increase of serum IFN-γ levels", "setting": "IFN-γ; 30 μg per mouse, at 2, 4 and 6 hours", "result": "32-38 fold"},
      {"measurement": "IFN-γ level in pg/ml serum on day 0 after 2 hours", "setting": "IFN-γ; 90 μg OVA323-339 i.p.", "result": "407.899 ± 106.513", "unit": "pg/mL"},
      {"measurement": "IFN-γ level in pg/ml serum on day 0 after 4 hours", "setting": "IFN-γ; 90 μg OVA323-339 i.p.", "result": "413.925 ± 65.247", "unit": "pg/mL"},
      {"measurement": "IFN-γ level in pg/ml serum on day 0 after 6 hours", "setting": "IFN-γ; 90 μg OVA323-339 i.p.", "result": "514.918 ± 72.758", "unit": "pg/mL"},
      {"measurement": "increase of INF-γ serum concentration", "setting": "IFN-γ; at 2 and 4 hours", "result": 75, "unit": "fold"},
      {"measurement": "increase of INF-γ serum concentration", "setting": "IFN-γ; at 6 hours", "result": 94, "unit": "fold"},
      {"measurement": "increase of serum IFN-γ levels", "setting": "IFN-γ; 10 g (printed) of peptide, at 4 hours", "result": "about 40 fold"},
      {"measurement": "increase in IFN-γ levels in sera", "setting": "IFN-γ; first injection of 10 μg peptide, 3 hours after", "result": 50, "unit": "fold"},
      {"measurement": "change in serum INF-γ levels", "setting": "IFN-γ; primary stimulation, 1 μg per mouse, only at 4 hours", "result": "small increase"},
      {"measurement": "rise of INF-γ levels after second sensitization", "setting": "IFN-γ; second sensitization, same dose (10 μg) of peptide", "result": "same magnitude"},
      {"measurement": "effect of OVA-peptide priming on IL-1α serum levels", "setting": "IL-1α", "result": "rapid increase"},
      {"measurement": "IL-2 levels in pg/ml serum on day 0 after 2 hours", "setting": "IL-2; 3 μg OVA323-339 i.p.", "result": "327.513 ± 76.331", "unit": "pg/mL"},
      {"measurement": "IL-2 levels in pg/ml serum on day 0 after 2 hours", "setting": "IL-2; 10 μg OVA323-339 i.p.", "result": "2866.966 ± 361.613", "unit": "pg/mL"},
      {"measurement": "IL-2 levels in pg/ml serum on day 0 after 2 hours", "setting": "IL-2; 30 μg OVA323-339 i.p.", "result": "2926.303 ± 381.536", "unit": "pg/mL"},
      {"measurement": "IL-2 levels in pg/ml serum on day 0 after 2 hours", "setting": "IL-2; 90 μg OVA323-339 i.p.", "result": "4841.034 ± 108.352", "unit": "pg/mL"},
      {"measurement": "TNF-α in OVA-primed versus unprimed mice", "setting": "TNF-α; 100 μg LPS, 2 hours", "result": 9.7, "unit": "fold"},
      {"measurement": "change in TNF-α levels, OVA-primed versus unprimed", "setting": "TNF-α; 100 μg LPS, 4 hours", "result": "no significant changes"},
      {"measurement": "TNF-α in OVA-peptide primed versus unprimed mice", "setting": "TNF-α; 300 μg LPS, 2 hours", "result": 7.8, "unit": "fold"},
      {"measurement": "difference in TNF-α levels, OVA-peptide primed versus unprimed", "setting": "TNF-α; 300 μg LPS, 4 hours", "result": "no difference"},
      {"measurement": "TNF-α in OVA-peptide primed versus unprimed mice", "setting": "TNF-α; 500 μg LPS, 2 hours", "result": 5.2, "unit": "fold"}
    ]}
  ]
}
